In general, solubility refers to how much of the substance goes into solution per volume. Low values mean a poorly soluble substance, high ones a readily soluble substance. One may read the logP as the decadic logarithm of the partition coefficient of the neutral form, usually between octanol and water. As usually defined, the bioavailability is dose-corrected exposure relative to a reference, in per cent. One may read the clearance as the volume of plasma or blood freed of the substance per unit of time. In general, half-life refers to the time needed for the level to fall by half in the phase considered. A lower half-life goes with fast loss.

Converted amounts (≈) assume the structure as drawn. A value given as a limit tells only on which side of the number the result lay.

The results in this text go back to ChEMBL document CHEMBL1136194, “Discovery and evaluation of 3-(5-thien-3-ylpyridin-3-yl)-1H-indoles as a novel class of KDR kinase inhibitors” (Bioorg Med Chem Lett, 2003).

A short description of series [1]: Solubility was determined. It is filed as physicochemical.
Series [2] is described as follows: Partition coefficient (logP). Particulars: octanol/water. Format: physicochemical.
A short description of series [3]: Pharmacokinetic property (Vdss) for the compound (5 mg/kg iv) was determined in rats. Particulars: rat, in vivo, read-out: Vdss. It is filed as ADME, organism-based.
A short description of series [4]: Oral bioavailability in rat (dose 20 mg/kg p.o.). Format: ADME, organism-based. Particulars: in vivo.
A short description of series [5]: Pharmacokinetic property (Clearance) for the compound (5 mg/kg iv) was determined in rats. Particulars: rat, in vivo. Format: ADME, organism-based.
Series [6] can be described thus: Pharmacokinetic property (t1/2) for the compound ([…] mg/kg iv) was determined in rats. Format: ADME, organism-based. Particulars: rat, in vivo, 5 mg/kg.
Series [7] is described as follows: Solubility at pH 7.4 was determined. It is filed as physicochemical. Particulars: buffer.
Series [8] can be described thus: Solubility at pH 5.2 was determined. Format: physicochemical. Particulars: buffer.

Consider `CC(=O)Nc1oc(-c2cc3ccccc3cc2O)nc1-c1ccccc1`, for which, in series [1], the solubility is under 5 µg/mL. The compound further had a logP in series [2] of over 4.1.
Turning to `c1ccc2c(c1)c(-c1cncc(-c3ccsc3)c1)cn2CCN1CCOCC1`, the Vd in series [3] amounted to 7.2 L/kg. In series [4], this compound showed a bioavailability of 35%. Further, the clearance in series [5] was 65 mL/min/kg. In series [6], this compound gave a half-life of 1.9 h. For the same compound, the values for the solubility in series [7] and in series [8] were 5 µg/mL (≈ 12.8 µM) and 24 µg/mL (≈ 61.6 µM), respectively. In addition, the logP in series [2] came to 3.3.
Take `c1ccc2c(c1)c(-c1cncc(-c3ccsc3)c1)cn2CCCN1CCCCC1`: in series [3], the Vd was 1.8 L/kg. In series [4], this compound had a bioavailability of 28%. In series [5], this compound returned a clearance of 15 mL/min/kg. Besides, in series [6], the half-life is 1.6 h. Also, the values for the solubility in series [7] and in series [8] were under 5 µg/mL and 177 µg/mL (≈ 441 µM), respectively.
For `CN1CCN(CCCn2cc(-c3cncc(-c4ccsc4)c3)c3ccccc32)CC1`, the Vd in series [3] came to 1.7 L/kg. For the same compound, in series [4], the bioavailability was 33%. This compound also showed a clearance in series [5] of 13 mL/min/kg. In addition, the half-life in series [6] was 1.8 h. Further, the results for the solubility in series [7] and in series [8] were over 205 µg/mL and 18200 µg/mL (≈ 43600 µM), respectively. This compound registered a logP in series [2] of 3.7.
